Among the data in BindingDB's records for doi:10.1021/jm030472z (Neurocrine Biosciences, 2004) are Ki values, retold here.

In general, Ki refers to the equilibrium dissociation constant of an inhibitor or competing ligand from its target.

Experiment [1] concerns the target Gonadotropin-releasing hormone receptor (Macaca mulatta). In words: […] inhibition of monkey Gonadotropin releasing hormone receptor.
The target is the same in experiment [2]. Briefly: […] inhibition of monkey Gonadotropin-releasing hormone receptor.

With `COc1cccc(-c2c(C)n(Cc3c(F)cccc3F)c(=O)n(C[C@@H](C)NCc3nccs3)c2=O)c1F` [1-(2,6-Difluoro-benzyl)-5-(2-fluoro-3-methoxy-phenyl)-6-methyl-3-{(R)-2-[(thiazol-2-ylmethyl)-amino]-propyl}-1H-pyrimidine-2,4-dione], the inhibition constant Ki in experiment [1] came out at 820 nM. `COc1cccc(-c2c(C)n(Cc3c(F)cccc3F)c(=O)n(C[C@H](C)NCc3sccc3C)c2=O)c1F` [1-(2,6-Difluoro-benzyl)-5-(2-fluoro-3-methoxy-phenyl)-6-methyl-3-{(S)-2-[(3-methyl-thiophen-2-ylmethyl)-amino]-propyl}-1H-pyrimidine-2,4-dione] displayed a Ki in experiment [2] of 87 nM. The compound `COc1cccc(-c2c(C)n(Cc3c(F)cccc3F)c(=O)n(C[C@H](C)NCc3ccccc3)c2=O)c1F` [3-((S)-2-Benzylamino-propyl)-1-(2,6-difluoro-benzyl)-5-(2-fluoro-3-methoxy-phenyl)-6-methyl-1H-pyrimidine-2,4-dione] returned an inhibitory constant (Ki) in experiment [2] of 550 nM.
